In the supplement of paper PMC10307832:

How the values were obtained:
Experiment in all cases: relative viability (nuclei count vs DMSO), 5 days (fraction); higher = more cells survive
AZ628 + Crizotinib = compound: CC1=C(C=C(C=C1)NC(=O)C2=CC(=CC=C2)C(C)(C)C#N)NC3=CC4=C(C=C3)N=CN(C4=O)C [AZ628] + C[C@@H](Oc1cc(-c2cnn(C3CCNCC3)c2)cnc1N)c1c(Cl)ccc(F)c1Cl [Crizotinib] (partner 1 µM)
How it was run: (§1)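 After 5 days of treatment, lung cancer cells in 1536-well plates were fixed and stained in a single step (final 0.05% Triton X-100, 1% formaldehyde, 1 ug/ml Hoechst) and their nuclei counted on 4× images. Treatment had been applied by pin tool the day after seeding as one drug alone or as a fixed anchor-drug dose with five library-drug doses (not always all listed) in √10 steps. Relative viability is the nuclei count of treated wells divided by that of vehicle wells, and values are medians of duplicate plates.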

Darinaparsin + Lapatinib = compound: C[As](C)SC[C@H](NC(=O)CC[C@H](N)C(=O)O)C(=O)NCC(=O)O [Darinaparsin] + CS(=O)(=O)CCNCc1ccc(-c2ccc3ncnc(Nc4ccc(OCc5cccc(F)c5)c(Cl)c4)c3c2)o1 [Lapatinib] (partner 2 µM)
How it was run: as §1

AZ628 + Luminespib = compound: CC1=C(C=C(C=C1)NC(=O)C2=CC(=CC=C2)C(C)(C)C#N)NC3=CC4=C(C=C3)N=CN(C4=O)C [AZ628] + CCNC(=O)c1noc(-c2cc(C(C)C)c(O)cc2O)c1-c1ccc(CN2CCOCC2)cc1 [Luminespib] (partner 0.01 µM)
How it was run: as §1

QS11 + Phenformin = compound: C1CC2=C(C1)C=C(C=C2)OC3=NC(=C4C(=N3)N(C=N4)CC5=CC=C(C=C5)C6=CC=CC=C6)N[C@@H](CC7=CC=CC=C7)CO [QS11] + N=C(N)NC(=N)NCCc1ccccc1 [Phenformin] (partner 250 µM)
How it was run: as §1

NCI-H2170
relative viability (AZ628 + Crizotinib; first compound 0.08 µM): 1.23
relative viability (AZ628 + Crizotinib; first compound 0.253 µM): 1.19
relative viability (AZ628 + Crizotinib; first compound 0.8 µM): 1.12
relative viability (AZ628 + Crizotinib; first compound 2.53 µM): 1.15
relative viability (AZ628 + Crizotinib; first compound 8 µM): 1.21
relative viability (Darinaparsin + Lapatinib; first compound 0.08 µM): 0.283
relative viability (Darinaparsin + Lapatinib; first compound 0.8 µM): 0.257
relative viability (Darinaparsin + Lapatinib; first compound 2.53 µM): 0.286
relative viability (Darinaparsin + Lapatinib; first compound 8 µM): 0.285
relative viability (AZ628 + Luminespib; first compound 0.08 µM): 0.802
relative viability (AZ628 + Luminespib; first compound 0.253 µM): 0.725
relative viability (AZ628 + Luminespib; first compound 0.8 µM): 0.789
relative viability (AZ628 + Luminespib; first compound 2.53 µM): 0.752
relative viability (AZ628 + Luminespib; first compound 8 µM): 0.731
relative viability (QS11 + Phenformin; first compound 0.08 µM): 0.436
relative viability (QS11 + Phenformin; first compound 0.253 µM): 0.404
relative viability (QS11 + Phenformin; first compound 0.8 µM): 0.399
relative viability (QS11 + Phenformin; first compound 2.53 µM): 0.44
relative viability (QS11 + Phenformin; first compound 8 µM): 0.392

NCI-H460
relative viability (AZ628 + Crizotinib; first compound 0.08 µM): 1.03
relative viability (AZ628 + Crizotinib; first compound 0.253 µM): 0.92
relative viability (AZ628 + Crizotinib; first compound 0.8 µM): 0.872
relative viability (AZ628 + Crizotinib; first compound 2.53 µM): 0.7
relative viability (AZ628 + Crizotinib; first compound 8 µM): 0.38
relative viability (Darinaparsin + Lapatinib; first compound 0.08 µM): 1.03
relative viability (Darinaparsin + Lapatinib; first compound 0.8 µM): 1.3
relative viability (Darinaparsin + Lapatinib; first compound 2.53 µM): 0.731
relative viability (AZ628 + Luminespib; first compound 0.08 µM): 0.0338
relative viability (AZ628 + Luminespib; first compound 0.253 µM): 0.033
relative viability (AZ628 + Luminespib; first compound 0.8 µM): 0.0403
relative viability (AZ628 + Luminespib; first compound 2.53 µM): 0.0274
relative viability (AZ628 + Luminespib; first compound 8 µM): 0.0264
relative viability (QS11 + Phenformin; first compound 0.08 µM): 0.556
relative viability (QS11 + Phenformin; first compound 0.253 µM): 0.498
relative viability (QS11 + Phenformin; first compound 0.8 µM): 0.477
relative viability (QS11 + Phenformin; first compound 2.53 µM): 0.442
relative viability (QS11 + Phenformin; first compound 8 µM): 0.227

PC-14
relative viability (AZ628 + Crizotinib; first compound 0.08 µM): 0.909
relative viability (AZ628 + Crizotinib; first compound 0.253 µM): 0.839
relative viability (AZ628 + Crizotinib; first compound 0.8 µM): 1.04
relative viability (AZ628 + Crizotinib; first compound 2.53 µM): 0.976
relative viability (AZ628 + Crizotinib; first compound 8 µM): 0.726
relative viability (Darinaparsin + Lapatinib; first compound 0.08 µM): 0.333
relative viability (Darinaparsin + Lapatinib; first compound 0.8 µM): 0.294
relative viability (Darinaparsin + Lapatinib; first compound 2.53 µM): 0.32
relative viability (Darinaparsin + Lapatinib; first compound 8 µM): 0.372
relative viability (AZ628 + Luminespib; first compound 0.08 µM): 0.197
relative viability (AZ628 + Luminespib; first compound 0.253 µM): 0.132
relative viability (AZ628 + Luminespib; first compound 0.8 µM): 0.146
relative viability (AZ628 + Luminespib; first compound 2.53 µM): 0.167
relative viability (AZ628 + Luminespib; first compound 8 µM): 0.202
relative viability (QS11 + Phenformin; first compound 0.08 µM): 0.384
relative viability (QS11 + Phenformin; first compound 0.253 µM): 0.49
relative viability (QS11 + Phenformin; first compound 0.8 µM): 0.574
relative viability (QS11 + Phenformin; first compound 2.53 µM): 0.683
relative viability (QS11 + Phenformin; first compound 8 µM): 0.737

HCC-15
relative viability (AZ628 + Crizotinib; first compound 0.08 µM): 0.81
relative viability (AZ628 + Crizotinib; first compound 0.253 µM): 0.793
relative viability (AZ628 + Crizotinib; first compound 0.8 µM): 0.767
relative viability (AZ628 + Crizotinib; first compound 2.53 µM): 0.77
relative viability (AZ628 + Crizotinib; first compound 8 µM): 0.446
relative viability (Darinaparsin + Lapatinib; first compound 0.08 µM): 1.04
relative viability (Darinaparsin + Lapatinib; first compound 0.8 µM): 0.76
relative viability (Darinaparsin + Lapatinib; first compound 2.53 µM): 0.81
relative viability (Darinaparsin + Lapatinib; first compound 8 µM): 1.11
relative viability (AZ628 + Luminespib; first compound 0.08 µM): 0.262
relative viability (AZ628 + Luminespib; first compound 0.253 µM): 0.304
relative viability (AZ628 + Luminespib; first compound 0.8 µM): 0.478
relative viability (AZ628 + Luminespib; first compound 2.53 µM): 0.361
relative viability (AZ628 + Luminespib; first compound 8 µM): 0.282
relative viability (QS11 + Phenformin; first compound 0.08 µM): 0.541
relative viability (QS11 + Phenformin; first compound 0.253 µM): 0.519
relative viability (QS11 + Phenformin; first compound 0.8 µM): 0.445
relative viability (QS11 + Phenformin; first compound 2.53 µM): 0.44
relative viability (QS11 + Phenformin; first compound 8 µM): 0.5

NCI-H1437
relative viability (AZ628 + Crizotinib; first compound 0.08 µM): 0.869
relative viability (AZ628 + Crizotinib; first compound 0.253 µM): 0.822
relative viability (AZ628 + Crizotinib; first compound 0.8 µM): 0.899
relative viability (AZ628 + Crizotinib; first compound 2.53 µM): 0.995
relative viability (AZ628 + Crizotinib; first compound 8 µM): 0.932
relative viability (Darinaparsin + Lapatinib; first compound 0.08 µM): 1.15
relative viability (Darinaparsin + Lapatinib; first compound 0.8 µM): 0.769
relative viability (Darinaparsin + Lapatinib; first compound 2.53 µM): 0.719
relative viability (Darinaparsin + Lapatinib; first compound 8 µM): 0.974
relative viability (AZ628 + Luminespib; first compound 0.08 µM): 1.23
relative viability (AZ628 + Luminespib; first compound 0.253 µM): 1.06
relative viability (AZ628 + Luminespib; first compound 0.8 µM): 1.09
relative viability (AZ628 + Luminespib; first compound 2.53 µM): 1.16
relative viability (AZ628 + Luminespib; first compound 8 µM): 1.14
relative viability (QS11 + Phenformin; first compound 0.08 µM): 0.302
relative viability (QS11 + Phenformin; first compound 0.253 µM): 0.225
relative viability (QS11 + Phenformin; first compound 0.8 µM): 0.285
relative viability (QS11 + Phenformin; first compound 2.53 µM): 0.334
relative viability (QS11 + Phenformin; first compound 8 µM): 0.283

COR-L23
relative viability (AZ628 + Crizotinib; first compound 0.08 µM): 0.619
relative viability (AZ628 + Crizotinib; first compound 0.253 µM): 0.736
relative viability (AZ628 + Crizotinib; first compound 0.8 µM): 0.666
relative viability (AZ628 + Crizotinib; first compound 2.53 µM): 0.59
relative viability (AZ628 + Crizotinib; first compound 8 µM): 0.365
relative viability (Darinaparsin + Lapatinib; first compound 0.08 µM): 1.41
relative viability (Darinaparsin + Lapatinib; first compound 0.8 µM): 0.811
relative viability (Darinaparsin + Lapatinib; first compound 2.53 µM): 0.716
relative viability (Darinaparsin + Lapatinib; first compound 8 µM): 1.16
relative viability (AZ628 + Luminespib; first compound 0.08 µM): 0.687
relative viability (AZ628 + Luminespib; first compound 0.253 µM): 0.737
relative viability (AZ628 + Luminespib; first compound 0.8 µM): 0.709
relative viability (AZ628 + Luminespib; first compound 2.53 µM): 0.655
relative viability (AZ628 + Luminespib; first compound 8 µM): 0.404
relative viability (QS11 + Phenformin; first compound 0.08 µM): 0.461
relative viability (QS11 + Phenformin; first compound 0.253 µM): 0.452
relative viability (QS11 + Phenformin; first compound 0.8 µM): 0.44
relative viability (QS11 + Phenformin; first compound 2.53 µM): 0.39
relative viability (QS11 + Phenformin; first compound 8 µM): 0.366

NCI-H1975
relative viability (AZ628 + Crizotinib; first compound 0.08 µM): 0.957
relative viability (AZ628 + Crizotinib; first compound 0.253 µM): 1.02
relative viability (AZ628 + Crizotinib; first compound 0.8 µM): 0.896
relative viability (AZ628 + Crizotinib; first compound 2.53 µM): 0.927
relative viability (AZ628 + Crizotinib; first compound 8 µM): 0.627
relative viability (Darinaparsin + Lapatinib; first compound 0.08 µM): 0.998
relative viability (Darinaparsin + Lapatinib; first compound 0.8 µM): 0.895
relative viability (Darinaparsin + Lapatinib; first compound 2.53 µM): 0.66
relative viability (Darinaparsin + Lapatinib; first compound 8 µM): 1.25
relative viability (AZ628 + Luminespib; first compound 0.08 µM): 0.23
relative viability (AZ628 + Luminespib; first compound 0.253 µM): 0.304
relative viability (AZ628 + Luminespib; first compound 0.8 µM): 0.196
relative viability (AZ628 + Luminespib; first compound 2.53 µM): 0.316
relative viability (AZ628 + Luminespib; first compound 8 µM): 0.228
relative viability (QS11 + Phenformin; first compound 0.08 µM): 0.419
relative viability (QS11 + Phenformin; first compound 0.253 µM): 0.406
relative viability (QS11 + Phenformin; first compound 0.8 µM): 0.429
relative viability (QS11 + Phenformin; first compound 2.53 µM): 0.493
relative viability (QS11 + Phenformin; first compound 8 µM): 0.515

NCI-H1666
relative viability (AZ628 + Crizotinib; first compound 0.08 µM): 1.09
relative viability (AZ628 + Crizotinib; first compound 0.253 µM): 0.901
relative viability (AZ628 + Crizotinib; first compound 0.8 µM): 0.819
relative viability (AZ628 + Crizotinib; first compound 2.53 µM): 0.761
relative viability (AZ628 + Crizotinib; first compound 8 µM): 0.632
relative viability (Darinaparsin + Lapatinib; first compound 0.08 µM): 0.763
relative viability (Darinaparsin + Lapatinib; first compound 0.8 µM): 0.587
relative viability (Darinaparsin + Lapatinib; first compound 2.53 µM): 0.59
relative viability (Darinaparsin + Lapatinib; first compound 8 µM): 0.701
relative viability (AZ628 + Luminespib; first compound 0.08 µM): 0.978
relative viability (AZ628 + Luminespib; first compound 0.253 µM): 0.882
relative viability (AZ628 + Luminespib; first compound 0.8 µM): 0.848
relative viability (AZ628 + Luminespib; first compound 2.53 µM): 0.843
relative viability (AZ628 + Luminespib; first compound 8 µM): 0.829
relative viability (QS11 + Phenformin; first compound 0.08 µM): 0.556
relative viability (QS11 + Phenformin; first compound 0.253 µM): 0.519
relative viability (QS11 + Phenformin; first compound 0.8 µM): 0.55
relative viability (QS11 + Phenformin; first compound 2.53 µM): 0.479
relative viability (QS11 + Phenformin; first compound 8 µM): 0.398

A-427
relative viability (AZ628 + Crizotinib; first compound 0.08 µM): 0.641
relative viability (AZ628 + Crizotinib; first compound 0.253 µM): 0.74
relative viability (AZ628 + Crizotinib; first compound 0.8 µM): 0.69
relative viability (AZ628 + Crizotinib; first compound 2.53 µM): 0.665
relative viability (AZ628 + Crizotinib; first compound 8 µM): 0.251
relative viability (Darinaparsin + Lapatinib; first compound 0.08 µM): 1.08
relative viability (Darinaparsin + Lapatinib; first compound 0.8 µM): 1.06
relative viability (Darinaparsin + Lapatinib; first compound 2.53 µM): 1.04
relative viability (Darinaparsin + Lapatinib; first compound 8 µM): 1.22
relative viability (AZ628 + Luminespib; first compound 0.08 µM): 1.08
relative viability (AZ628 + Luminespib; first compound 0.253 µM): 0.805
relative viability (AZ628 + Luminespib; first compound 0.8 µM): 0.76
relative viability (AZ628 + Luminespib; first compound 2.53 µM): 0.775
relative viability (AZ628 + Luminespib; first compound 8 µM): 0.555
relative viability (QS11 + Phenformin; first compound 0.08 µM): 0.286
relative viability (QS11 + Phenformin; first compound 0.253 µM): 0.358
relative viability (QS11 + Phenformin; first compound 2.53 µM): 0.34
relative viability (QS11 + Phenformin; first compound 8 µM): 0.363
